# Experimental data: US10131558B1, “Compositions, methods, and/or systems for managing sulfide” (priority 2016, dated 2018)
# “And” between values parts separate entries of the source, which are not always exact repeats. Identical values can stand only once.
# Key:
# [1] = after 2 days; cited from earlier work
# [2] = Full scale lagoon treatment system (spray)
# Excerpt: The system was designed to treat sulfide and recirculate sulfide-free wastewater from the lagoon in a continuous manner and reuse the treated wastewater in such a manner as to gain substantially complete control of hydrogen sulfide escaping to the atmosphere. […] The capping of the lagoon was accomplished by spray applying sulfide-free treated wastewater using a spray application system specifically designed to gain complete or nearly complete coverage of the surface area of the lagoon. Importantly, the spray application system imparted minimal mixing to the untreated surface of the lagoon. Any significant mixing of the surface water within the lagoon could be problematic for hydrogen sulfide release. Gently spray-applying sulfide-free water over the lagoon served to effectively cap the lagoon with minimal mixing, thus preventing gaseous sulfide from escaping to the atmosphere. Further, by assuring that the treated wastewater returning to the lagoon surface contained excess oxidation treatment chemicals, any fugitive sulfide that might have risen through the cap could be mitigated.
# The water proceeding eastward turns north at the end of the lagoon and travelling back westward where it is pumped out of the lagoon at the northwest end.
# This system is primarily driven by a large electrically powered Cornell pump denoted by the “Pump” box in FIG. 5. The pump sits on a 40′ wide elevated dyke that runs down the center of the lagoon. Water is pumped out of the northwest side of the lagoon via a 12″ HDPE “Pump Intake” pipe and flows through the Cornell pump and then down the dyke in the center of the lagoon via an 8″ HDPE main pipe. […] These injection locations are designated by the “1” and “2” circles in FIG. 5. T valves were installed into the 8″ main line, redirecting a portion of the water from the 8″ main pipe out to each of 27 different floats via 2″ HDPE piping. The Nelson F100 series Big Gun spray irrigation heads were mounted on the floats and directly connected to the 2″ HDPE piping. Around 47 PSI of water pressure was constantly maintained to allow sufficient working pressure for each of the 27 spray irrigation heads. The chemical being dosed into the line via the Verdeflex pumps was carefully calculated to ensure sufficient Ferric Gluconate and Hydrogen Peroxide were present in the line to not only ensure substantially complete destruction of all sulfide in the line but to provide a surplus of chemicals for additional treatment upon contact with any sulfides in the pond. […]
# Prior to treatment initiation, samples were taken starting on Mar. […] A quantity of 45 gallons per hour (540 gallons per 12 hour period) of 50% Peroxide and 20 gallons per hour of Ferric Gluconate (240 gallons per 12 hour period) were pumped into the lagoon via the sprayer system.
# [3] = Treatment of sulfides in municipal wastewater using ferric chelants and ozone; conditions: ozone ~13.4 ppm, 4 ppm ferric chelant where used; for sulfide remaining: start 13.70
# Excerpt: The raw wastewater received a dose of 4 ppm of each of the four ferric chelants (mass calculated as chelant) just prior to addition of ozone.
# Ozone addition was accomplished using an ozone generator from Ozone Solutions, Sioux Center, Iowa. The generator was capable of generating up to 2 grams per hour of ozone. Injection of ozone into the wastewater was accomplished using an injection system from Ozone Solutions called the H2O-Mini. The unit is designed to treat from 1.5 to 5.7 liters per minute of wastewater. The unit was set up to deliver 6.7 mg/minute of dissolved ozone (assumed the 80% efficiency of dissolution noted by the manufacturer) to wastewater passing the injection nozzle within the H2O-mini. Each test was designed for maximum wastewater flow through the H2O-mini (5.7 liters/min).
# An objective of the study will be to treat most, but not all, of the sulfide present within the individual test samples in order to determine which treatment was more efficient than the others.
# Samples were taken over twenty minutes of contact time from the recirculation vessel after ozonation. For each of the four ferric chelant studies, chelants were added to the wastewater recirculation vessels just prior to starting the injection of ozone and recirculation of the liquids. The injection of ozone was applied over the prescribed period and sampled as before in the ozone only experiment.
# [4] = Full scale lagoon treatment system using eductors; conditions: across all stations, eductor system, September 2016
# Description: Due to concerns about fugitive airborne spray entering the environment and, potentially, drifting onto a nearby public road, SMBSC management requested an underwater eductor system be installed to replace the Nelson spray irrigation system described previously. Therefore, a full scale trial using a commercially available surface chemical application system and method was tested at the SMBSC. The objective of the test was to determine if a system designed to apply oxidation treatment chemicals just below the surface of the large wastewater lagoon at SMBSC was as effective as the spray system that minimized surface mixing. It was surmised that the system would achieve similar results to the spray application approach due to minimal disturbance to lagoon subsurface wastewater. The eductor system slowly spun in a circular pattern similar to the circular pattern of the spray system. The Serfilco eductor system pulled wastewater from the contaminated lagoon using the identical system of treatment used for the Nelson spray system. The only variation was the application mechanism of eduction versus spray. The eduction system relied on the force of the wastewater flowing back into the eductor distribution arms to force the circular motion of the arms distributing oxidation chemicals. All aspects of the system were the same except for the distribution system. […]
# [5] = test system: total heterotrophic bacteria; test: Disinfection of wastewater using chelated iron compounds; assay type: cell-based; conditions: 30 min, raw average 18,188 CFUs
# Description: The clarified supernatant was then pored off of the top of the settled solids within the sample. The supernatant was then mixed and four samples were collected to determine untreated heterotrophic bacteria counts. […] were dissolved in distilled water at 0.4334M. Ferric chloride was added in amounts to achieve saturation of chelant sites on the respective chelants. […] Twenty individual liter samples of supernatant were then decanted from the well-mixed wastewater sample for testing. Four chelated iron products with peroxide were tested at two test concentrations and compared to samples receiving peroxide only and iron chelate only. […] Samples were then decanted to sterile sample containers containing sodium thiosulfate to stop the oxidation process and preserve the sample. Samples were then placed in a refrigerator until all samples were finished. Samples were packaged in a standard cooler with ice packs and sent via overnite delivery to ProChem Labs in Lynchburg, Va. for analysis for total heterotrophic bacteria counts.
# [6] = SMBSC pilot demonstration, lagoon spray system; conditions: Trial 1, samplings T2-T5
# Description: The exemplary system and method was designed to utilize 1.7 million gallons per day of the 35 to 40 million gallons of high strength wastewater within the lagoon as a carrier for treatment chemistry. Flow into the lagoon varied. Influent was mostly high organic strength wastewater. A typical daily flow rate approximated 500,000 gallons.
# The utilized system and method sought to efficiently cover as much of the lagoon surface with treated wastewater containing excess quantities of treatment chemistry as practically possible. For spray nozzles, the system and method utilized 100 series Big Gun sprinklers (available from Nelson Irrigation Corporation of Walla Walla, Wash.) oriented in a pattern to assure maximum coverage of targeted surface area of the lagoon. […] The pressure varied depending on the demand of the spray nozzles and surface coverage demand. Further, the effectiveness relied somewhat on delivery of sufficient volume of treated wastewater containing excess treatment chemistry to the surface of the lagoon to adequately suppress sulfide at or near the surface of the lagoon. […] Treatment chemistry for the returned treated wastewater was dosed to treat sulfide within the uptake wastewater and over dosed with added treatment chemistry to accommodate the expected need for treatment within the surface water of the receiving lagoon. […] This dosage application assumed these ratios for each hour of continuous treatment.
# The method used for this pilot study for dosing was estimated by taking surface and mid-depth samples of the untreated lagoon and testing for sulfide.
# Station D1 referred to a dam where water flowed down through the dam into the remaining run of the retention lagoon.
# [7] = Treatment of sulfides in municipal wastewater using ferric chelants and hydrogen peroxide
# Description: Total sulfides were tested for using Standard Methods 4500-S^2− D with a Hach Chemical Company (of Loveland, Colo.) DR 2000 Spectrophotometer and reagents from Hach specific for this particular test. To keep total sulfides within the range of the test, samples were diluted with distilled water prior to conducting the test as per Hach instructions.
# Tests for total sulfide were conducted after 5, 15, and 30 minutes of contact time on each of the seven liter test jars.
# [8] = Treatment of groundwater contaminated with BTEX and MtBE; conditions: 250 mL groundwater; 1 mL 35% H2O2, plus 1 mL Fe-GLC in the combination; untreated 27 ppb
# [9] = as above; conditions: 250 mL groundwater; 1 mL 35% H2O2, plus 1 mL Fe-GLC in the combination; untreated 34 ppb
# [10] = as above; conditions: 250 mL groundwater; 1 mL 35% H2O2, plus 1 mL Fe-GLC in the combination; untreated 171 ppb
# [11] = Vapor suppression spray test, hydrogen sulfide above test water; conditions: no treatment 18
# Description: A solution of ferric glucontate treatment was prepared using 2.0 M ferric gluconate solution along with distilled water to achieve a final concentration of ferric gluconate at 5 mg/ml, as ferric iron.
# A five gallon bucket containing five liters of de-ionized water was infused with 10 parts per million of total sulfide using technical grade anhydrous Sodium Hydrosulfide. The pH of the water was then adjusted to a pH of 7.0 using a dilute solution of hydrochloric acid.
# After cleaning the bucket for control testing for each study, five additional liters of de-ionized water was added and the same quantity of sulfide was infused into the fresh water and the pH adjusted to 7.0.
# [12] = Treatment of groundwater contaminated with BTEX and MtBE; conditions: 250 mL groundwater; 1 mL 35% H2O2, plus 1 mL Fe-GLC in the combination; untreated 159 ppb
# [13] = test system: Fecal Coliform; test: Disinfecting wastewater, peroxide alone vs Fe-GLC and peroxide; assay type: cell-based; conditions: 20 mg H2O2 (50 microliters 35%), plus 50 microliters Fe-GLC in the combination; after twenty minutes; control 2200
# [14] = Treatment of 2,4-D with hydrogen peroxide alone against hydrogen peroxide/Fe-gluconate; conditions: 250 mL; 200 microliters 50% hydrogen peroxide, plus 200 microliters Fe-GLC in the combination; after four hours; untreated 130 ppb
# Description: The dissolved sodium bicarbonate increased the alkalinity of the water somewhat, causing the water to mimic a natural water source. Two hundred fifty milliliters of this solution was distributed into three 500 mL Erlenmeyer flasks. […] The flasks were then covered with parafilm and swirled to facilitate mixing of the solution. After four hours a sample from each flask was taken to the pesticide lab at Virginia Tech and analyzed by gas chromatography (GC) for 2,4-D. The findings were as follows: […]
# [15] = Treatment of groundwater contaminated with BTEX and MtBE; conditions: 250 mL groundwater; 1 mL 35% H2O2, plus 1 mL Fe-GLC in the combination; untreated 56 ppb
# [16] = 10 min; 33 mg/l H2O2 (+44 μg/l VTX as total iron in the combination)
# [17] = spray system on, April 2016, date by row, same dosage
molecule,measurement,setting,value
"O=C([O-])[C@H](O)[C@@H](O)[C@H](O)[C@H](O)CO.[Na+] [Sodium gluconate, sodium gluconate]",readily biodegradable,[1],98%
ferric gluconate [Fe-GLC],average sulfide measurement,"[2]; one month, five sampling locations, spray system, untreated average 1.06 mg/l",0.06 mg/L
same,"Aqueous Sulfide, Station 1 (surface)",[2]; [17],0.00 mg/L
same,"Aqueous Sulfide, Station 4 (surface)",[2]; [17],0.00 mg/L
same,sulfide in wastewater spray upon exiting the spray nozzles,[2]; with proper dosage of oxidation chemicals,0.00 mg/L
same,Overall total percentage of sulfide reduction,[3],90%
same,Overall total percentage of sulfide reduction,[3]; listed as Fe-Gluconate,90%
same,sulfide remaining,[3]; 5 min contact,3.40 ppm
same,sulfide remaining,[3]; 10 min contact,2.80 ppm
same,sulfide remaining,[3]; 20 min contact,1.40 ppm
same,average sulfide measurement,[4],2.14 mg/L
same,Test 1 CFUs/ml 19.8 ppm H2O2 6 ppm Fe-Chelant,[5],98 CFUs/ml
same,Test 2 CFUs/ml 39.6 ppm H2O2 12 ppm Fe-Chelant,[5],28 CFUs/ml
same,Test 3 CFUs/ml 12 ppm Fe-Chelant,"[5]; chelant alone, no H2O2","22,600 CFUs/ml"
same,"Aqueous Sulfide, location 1S","[6]; same dosage, T1 before treatment 1.35",0 ppm and 0.00 ppm
same,"Gaseous Sulfide downwind at lagoon edge, Station 2",[6],0.00 ppm
same,"Gaseous Sulfide downwind at lagoon edge, Station 3",[6],0.00 ppm
same,sulfide reduction after 15 minutes,[7]; 20 ppm chelant and 105.8 ppm hydrogen peroxide,86.8%
"OO [H2O2, hydrogen peroxide]",MtBE after treatment,[8],15.7 ppb
same,Ethylbenzene after treatment,[9],13.0 ppb
same,Toluene after treatment,[10],55.7 ppb
same,H2S reading after 10 minutes,[11]; 1 ml of 15 mg/ml H2O2,6 ppm
same,H2S reading after 10 minutes,[11]; 3 ml of 15 mg/ml H2O2,4 ppm
same,H2S reading after 10 minutes,"[11]; 5 ml of 15 mg/ml H2O2 sprayed on 5 L water with 10 ppm total sulfide, pH 7.0",3 ppm
same,Xylenes after treatment,[12],67.0 ppb
same,Fecal Coliform,[13],53 cfu/100 mL
same,"2,4-D",[14],230 ppb
same,Benzene after treatment,[15],15.1 ppb
same,H2S Above H2O,[16],17 PPM
same,Total Sulfide 1 CM Depth,[16],8.5 mg/L
same,Total Sulfide 2 CM Depth,[16],9.1 mg/L
same,Total Sulfide 3 CM Depth,[16],9.3 mg/L
same,Percentage of Sulfide Treated After 30 Minutes,"[7]; 1.5:1.0 peroxide to sulfide, Dose 3, 38.7 ppm H2O2 only (control run of the chelant named in the row)",59.0 and 46.5 and 56.3 and 57.0 and 55.5 and 54.7
same,Percentage of Sulfide Treated After 30 Minutes,"[7]; 2.5:1.0 peroxide to sulfide, Dose 3, 105.8 ppm H2O2 only (control run of the chelant named in the row)",69.0 and 69.5 and 67.8 and 66.4 and 44.4 and 69.3 and 70.2
same,"sulfide reduction after 15 minutes, average","[7]; hydrogen peroxide alone, 2.5:1.0 peroxide to sulfide",52%
same,sulfide treatment after 15 minutes,"[7]; peroxide alone, 37.8 ppm level",42.9%
